Laboratory results published in patent US20080312209A1, “Piperazine Heteroaryl Derivatives as Gpr38 Agonists” (Glaxo Group Limited, priority 2005, published 2008).

Columns and labels:
hGPR38R [1] = molecular target: T1, hGPR38R (Homo sapiens, UniProt O43193); experiment: GPR38 FLIPR functional agonist assay; assay type: cell-based; parameters: expressed in transfected cells; conditions: HEK-293 cells stably expressing the GPR38 receptor; agonist response, Fluo-4 fluorescence; read-out: pEC50 in the FLIPR assay (converted)
Description: The potencies and efficacies of the compounds of this invention for GPR^38 can be determined by FLIPR assay performed on the human cloned receptor as described herein. It has been found, using the FLIPR functional assay, that compounds of formula (I) appear to be partial or full agonists of the GPR38 receptor.
GPR38FLIPR Functional Agonist Assay Protocol
HEK-293 cells stably expressing the GPR38 receptor were seeded (10,000 cells/well) into poly-D-lysine coated 384-well black-wall, clear-bottom microtitre plates (Becton Dickinson) 24 h prior to assay. On day of assay, cells were washed (×2) with 80 ul of assay buffer (Hanks Balanced Salts Solution (HBSS), 10 mM HEPES, 200 μM Ca^2+, 2.5 mM probenecid) using the EMBLA cell washer. After the final wash, buffer was aspirated to leave a residual volume of 30 ul on the cells. Cells were loaded with 1 μM (final) Fluo-4-AM fluorescent indicator dye (TefLabs) in assay buffer, (20 ul loading solution added to each well using the Multidrop). Plates were incubated for 1 h at 37° C., before being washed (×3) with 80 ul assay buffer using the EMBLA cell washer; 30 ul residual being left after the final wash. Plates were then assayed on a Fluorometric Imaging Plate Reader (FLIPR, Molecular Devices). Test compounds were prepared in assay buffer without probenecid, but containing 0.03% CHAPS. In the FLIPR, 10 ul of test compound was added to the cells and changes in fluorescence measured over a 2 min timeframe. Maximum change in fluorescence over baseline was used to determine agonist response and concentration response curves were constructed, using a 4-parameter logistic equation.
(§1) The following alternative procedure may also be used:
HEK-293 cells stably expressing the GPR38 receptor were seeded (30,000 cells/100 ul growth media/well) into poly-D-lysine coated 96-well black-wall, clear-bottom microtitre plates (Corning) 24 hours prior to assay. On the day of assay the cells were loaded with 2 μM (final) Fluo-4-AM fluorescent indicator dye (Molecular Probes) and 1 mM (final) probenicid in assay buffer (145 mM sodium chloride, 2.5 mM potassium chloride, 10 mM Hepes, 10 mM glucose, 1.2 mM magnesium chloride, 1.5 mM calcium chloride and 0.1% BSA) (50 ul loading solution added to each well). Plates were incubated for 1 hour at 25° C., before being washed 4 times with 100 ul assay buffer using the EMBLA cell washer; 150 ul residual being left after the final wash. The cells were then incubated at 25° C. for 20 minutes and the plates were then assayed on a Fluorometric Imaging Plate Reader (FLIPR, Molecular Devices). Test compounds were prepared in assay buffer without probenecid. In the FLIPR, 50 ul of test compound was added to the cells and changes in fluorescence measured over a 2 minute timeframe. Maximum change in fluorescence over baseline was used to determine agonist response and concentration response curves were constructed, using a 4-parameter logistic equation.
Target sequence in this assay (O43193 whole entry): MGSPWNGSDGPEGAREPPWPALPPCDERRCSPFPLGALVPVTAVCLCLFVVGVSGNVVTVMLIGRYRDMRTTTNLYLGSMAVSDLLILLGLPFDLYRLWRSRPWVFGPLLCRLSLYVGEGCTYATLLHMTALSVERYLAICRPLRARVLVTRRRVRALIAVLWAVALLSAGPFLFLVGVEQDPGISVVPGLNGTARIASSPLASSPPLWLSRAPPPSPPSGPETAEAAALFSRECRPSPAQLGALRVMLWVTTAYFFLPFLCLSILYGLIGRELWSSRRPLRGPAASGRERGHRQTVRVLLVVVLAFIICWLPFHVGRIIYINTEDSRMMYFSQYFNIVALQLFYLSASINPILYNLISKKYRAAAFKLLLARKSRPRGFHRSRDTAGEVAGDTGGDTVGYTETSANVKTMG

hGPR38R [2] = molecular target: T1, hGPR38R; experiment: GPR38 GTPγS functional agonist assay; assay type: biochemical; parameters: expressed in transfected cells; host or cells: HEK293 (transient transfection; P2 membrane fractions); conditions: [35S]GTPγS SPA, HEK293 membranes with hGPR38R and Go G-protein; read-out: pEC50 in the GTPγS assay (converted)
Description: The potencies and intrinsic activities of the compounds of this invention can also be determined according to the [35S]GTPγS functional assay which is described herein. It has been found, using the [35S]GTPγS functional assay, that compounds of formula (I) appear to be partial or full agonists of the GPR38 receptor.
GPR38GTPγS Functional Agonist Assay Protocol
For each compound being assayed, in an Opti clear bottom 96 well plate, is added:—
(a) 20 μl of test compound (or 10 μl of guanosine 5′-triphosphate (GTP) as non-specific binding control) diluted to required concentration in assay buffer (20 mM N-2-Hydroxyethylpiperazine-N′-2-ethanesulfonic acid (HEPES)+100 mM NaCl+10 mM MgCl2, pH adjusted to 7.4 with NaOH); (b) 60 μl bead/membrane/GDP mix prepared by suspending wheat germ agglutinin-polyvinyltoluene (WGA-PVT) scintillation proximity assay (SPA) beads at 100 mg/ml in assay buffer followed by mixing with membrane (prepared in accordance with the methodology described above) and diluting in assay buffer to give a final volume of 60 μl which contains 10 μg protein and 0.5 mg bead per well—mixture is pre-mixed at 4° C. for 30 min on a roller and just prior to addition to the plate, 10 μM final concentration of guanosine 5′ diphosphate (GDP—diluted in assay buffer) is added; (c) 20 μl guanosine 5′ [γ35-S]thiotriphosphate, triethylamine salt (Amersham; radioactivity concentration=37 kBq/μl or 1 mCi/ml; Specific Activity 1160 Ci/mmol) diluted to 1.9 nM in assay buffer to give 0.38 nM final.
The plate is incubated on a shaker at 25° C. for 30 min followed by centrifugation for 5 min at 1500 rpm. The plate is read between 3 and 6 h after completion of centrifuge run in a Wallac Microbeta counter on a 1 min normalised tritium count protocol. Data is analysed using a 4-parameter logistic equation. Basal activity used as minimum.
as §1
Target sequence in this assay (O43193 whole entry): as above
Target sequence in this assay (P09471 2-354 partner limits assumed): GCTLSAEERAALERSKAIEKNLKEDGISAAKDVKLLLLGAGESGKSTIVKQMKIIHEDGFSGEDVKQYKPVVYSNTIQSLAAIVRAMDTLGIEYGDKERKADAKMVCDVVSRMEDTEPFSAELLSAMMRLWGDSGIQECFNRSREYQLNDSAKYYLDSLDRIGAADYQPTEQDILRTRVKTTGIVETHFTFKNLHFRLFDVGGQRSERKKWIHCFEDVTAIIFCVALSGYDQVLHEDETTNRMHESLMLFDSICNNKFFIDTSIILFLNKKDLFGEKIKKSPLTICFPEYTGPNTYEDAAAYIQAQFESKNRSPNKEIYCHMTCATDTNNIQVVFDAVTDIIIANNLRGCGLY
Target sequence in this assay (P62873 2-340 partner limits assumed): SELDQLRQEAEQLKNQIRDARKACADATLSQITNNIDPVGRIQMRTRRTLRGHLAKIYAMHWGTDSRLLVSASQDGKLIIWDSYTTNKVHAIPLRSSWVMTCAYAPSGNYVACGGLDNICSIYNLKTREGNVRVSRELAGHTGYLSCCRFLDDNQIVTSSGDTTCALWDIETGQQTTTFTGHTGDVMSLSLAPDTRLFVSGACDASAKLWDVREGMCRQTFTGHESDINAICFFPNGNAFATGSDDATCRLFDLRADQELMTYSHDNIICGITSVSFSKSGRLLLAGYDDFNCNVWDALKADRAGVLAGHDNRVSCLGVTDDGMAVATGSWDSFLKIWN
Target sequence in this assay (P59768 2-68 partner limits assumed): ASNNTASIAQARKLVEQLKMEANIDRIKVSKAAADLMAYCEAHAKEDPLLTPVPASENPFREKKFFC
Membranes are derived from bulk cell cultures of HEK293 cell lines transiently transfected with hGPR38R and Go G-protein. P2 membranes fractions are prepared, aliquoted and stored at −80° C.
For each compound being assayed, the following is added into a white Greiner 384 well plate:—
(a) 1 μl of test compound diluted to required concentration in DMSO. (b) 20 μl bead/membrane/Saponin/GDP mix prepared as follows;—suspension of LEADseeker wheat germ agglutinin (WGA) scintillation proximity assay (SPA) beads at 25 mg/ml in assay buffer (20 mM N-2-Hydroxyethylpiperazine-N′-2-ethanesulfonic acid (HEPES)+100 mM NaCl+10 mM MgCl2, pH adjusted to 7.4 with KOH) containing saponin at 150 ug/ml. Mixing of bead suspension with membranes at 500 ug/ml (prepared in accordance with the methodology described above) and diluting in assay buffer to give a final volume of 20 μl which contains 5 μg protein and 0.25 mg bead per well.
Mixture is pre-mixed for 30 minutes on a roller and just prior to addition to the plate, 3 μM final assay concentration of guanosine 5′ diphosphate (GDP) (diluted in assay buffer) is added.
(c) 25 μl guanosine 5′ [γ35-S]thiotriphosphate, triethylamine salt (Amersham; radioactivity concentration=37 kBq/μl or 1 mCi/ml; Specific Activity 1160 Ci/mmol) diluted to 0.6 nM in assay buffer to give 0.33 nM final assay concentration.
The plate is then spun for 2 minutes at 1500 rpm and then incubated at room temperature for 4 hours. The plate is then read on a Viewlux Plux (Perkin Elmer). Data is analysed using a 4-parameter logistic equation.

EC50 (hGPR38R [1]): < 316 nM
EC50 (hGPR38R [2]): < 3.16 µM
Compound: C[C@@H]1CN(Cc2ccc(-c3cccnc3C(=O)N3CCC(Sc4ccc(Cl)cc4)CC3)cc2F)C[C@H](C)N1 [Example 13, (3R,5S)-1-({4-[2-({4-[(4-chlorophenyl)thio]-1-piperidinyl}carbonyl)-3-pyridinyl]-2-fluorophenyl}methyl)-3,5-dimethylpiperazine]
